Measurements from PMC10541198, “Specific quinone reductase 2 inhibitors reduce metabolic burden and reverse Alzheimer’s disease phenotype in mice” (The Journal of Clinical Investigation, 2023).

Target: T1, QR2 (Homo sapiens, UniProt P16083)
T1 construct: purchased Sigma-Aldrich
T1 sequence (P16083 1-231): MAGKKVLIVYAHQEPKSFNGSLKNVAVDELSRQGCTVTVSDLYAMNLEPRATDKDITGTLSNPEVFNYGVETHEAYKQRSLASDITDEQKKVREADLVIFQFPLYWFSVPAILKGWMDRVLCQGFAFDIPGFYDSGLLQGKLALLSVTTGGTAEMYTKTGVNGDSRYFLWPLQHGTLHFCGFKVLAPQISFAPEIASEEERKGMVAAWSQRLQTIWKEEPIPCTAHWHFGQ
Test: QR2 activity assay, BNAH fluorescence (standard/primary)
Type: biochemical
Details: for IC50: Figure 2D, readout not stated
Excerpt: A drug discovery campaign strategy was initiated to screen compounds for QR2-specific, cell-free inhibition and in vitro activity, followed by SAR optimization (Figure 2A) to achieve highly specific and potent QR2 inhibitor synthesis. In order to establish a varied and chemically amenable starting point, we developed a high-throughput QR2 assay (Supplemental Methods) that we screened against a library with approximately 200,000 compounds. […] Compounds that replicated the initial hit result were then assayed similarly against QR1 to evaluate compound specificity (Figure 2B). From the HTS, a chemically tractable and attractive series of compounds containing a sulfone flanked by an amine and a heterocycle were identified and selected for SAR development (Figure 2C, Supplemental Methods, Supplemental Table 1, and Supplemental Table 2). […]
High Throughput Screen (H TS)
The enzymatic activity of QR 2 (10 nM) was measur ed using menadione (both Sigm a -Aldrich) as subst r at e and dihydro- benzylnicotinamide (BNAH; Tocris) as co-substrate(62). The reaction was performed in 50 mM Tri s HCl, 150 mM NaCl 0.01%Tween- 20 pH=8.5 (Sigma-Aldrich) at r oom tem per atur e. Briefl y, 3 µL of menadione alone (200 µM) or a mixture of menadione and QR2 (200 µM of […]
menadione and 10 nM of QR2) were dispensed in 1536-well black Nunc plates (Thermo-Fisher) using aMultidrop™ Combi Reagent Dispenser (Thermo-Fisher) and pre-incubated with compounds for 10min. BNAH (200µM) was t hen added (3 µL) to the reaction using a BioNex Solutions BNX1536plate washer and the plates were incubated for another 10 min. Fluorescence intensity was followed in a PHERAstar FS multi-mode plate reader (BMG Labtech) us i ng an optic module with excitation at 360 nm and emission at 470 nm. The initial HTS includedapproximately 200,000 compounds at a single concentrationof 5 µM. The chemical libraries used were Selleck Chemicals Bioactives, the Drug-like set from Enamine, HitFinder collection from Maybridge, Spectrum Collection from Microsource, Lopa c from Sigma -Aldrich and the diversity set s from Chem Div and Che m Br idge .
Initial ‘‘hit’’ compounds were defined as causing >30% reduction of enzyme activity. Compounds suspected to be fluorescent were re -assayed in an absorbance assay at 350 nm using the same reaction but in a higher volume (100 µL), in a transparent plate (Greiner Bio- One). ‘‘Hit’’ compounds resulting from both the fluorescence and absorbance assay wer e t ested in a concentration- response, and IC50 values were de t er mi ne d. In parallel, the same concentration response methodologywas appliedin a selectivity assay where QR2 enzymewas replaced byQR1 […]
Chromatography System, with UV/Vis detector 2489, using XBridge® Prep C18 10 μm 10x250 mm […]
was monitored by Wat er s UPLC-MS system: Acquity UPLC® H class with PDA detector, and using […]

IC50 | Structure (SMILES) | binding affinity to QR2 than to QR1 | specificity to QR2 compared with QR1
30 nM | Cc1ccc(-c2cn3cccc(C)c3n2)cc1S(=O)(=O)N1CCC(C)CC1 [YB-800] |  | 
10 nM | Cc1ccc(-c2cn3cccc(C)c3n2)cc1S(=O)(=O)N1CCCC1 [YB-808] |  | 

Structure (SMILES) | IC50 | binding affinity to QR2 than to QR1 | specificity to QR2 compared with QR1
Cc1ccc(-c2cn3cccc(C)c3n2)cc1S(=O)(=O)N1CCNCC1 [YB-537] | 3 nM | more than 6,000 fold | more than 6,000 times
